Laboratory results reported in BindingDB's records for patent US10744117 (The Scripps Research Institute; The University of Toledo, 2020).

Target: T1, Peroxisome proliferator-activated receptor gamma (Homo sapiens, UniProt P37231)
T1 sequence (P37231 whole entry): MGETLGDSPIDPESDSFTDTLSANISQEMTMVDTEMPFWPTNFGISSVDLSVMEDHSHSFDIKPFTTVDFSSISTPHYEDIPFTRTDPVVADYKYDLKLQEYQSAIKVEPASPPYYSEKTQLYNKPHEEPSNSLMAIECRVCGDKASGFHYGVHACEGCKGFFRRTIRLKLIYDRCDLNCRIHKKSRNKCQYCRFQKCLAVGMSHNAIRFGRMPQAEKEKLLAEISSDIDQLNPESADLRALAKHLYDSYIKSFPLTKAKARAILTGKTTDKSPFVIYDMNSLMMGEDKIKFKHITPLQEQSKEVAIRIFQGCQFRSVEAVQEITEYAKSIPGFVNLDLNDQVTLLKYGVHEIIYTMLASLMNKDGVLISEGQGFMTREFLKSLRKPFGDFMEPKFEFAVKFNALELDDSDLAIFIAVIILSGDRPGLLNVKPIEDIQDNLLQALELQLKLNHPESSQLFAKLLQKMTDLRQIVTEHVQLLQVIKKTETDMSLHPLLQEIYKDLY

IC50: 15 µM
Compound: Cc1c(C)n(Cc2ccc(-c3ccc(Cl)c(O[C@H](C)C(=O)O)c3)cc2)c2ccc(C(=O)N[C@@H](C)c3ccc(C(C)(C)C)cc3)cc12 [US10744117, Compound IA-58]
